In patent US9023803B2, “Cancer therapy based on tumor associated antigens derived from cyclin D1” (Immatics Biotechnologies GmbH, priority 2010, dated 2015):

Legend:
patients = assay: Clinical study of vaccine IMA901 with or without prior cyclophosphamide; format: in vivo, human
Source text: (§1) Some patients received a prior TKI therapy with sunitinib or sorafenib, others a prior cytokine therapy with interferon or interleukin.
Both patient groups were followed up for progression-free survival (PFS) and overall survival (OS).

regulatory T cells = conditions: low-dose cyclophosphamide 300 mg/m^2 single infusion before vaccination
Source text: Absolute counts are shown in (A), percent change from baseline is shown in (B).
as §1

HLA-A*02 = assay: HLA-restriction: binding to HLA-A*02; parameters: species or system human
HLA-A*68 = assay: HLA-restriction: binding to HLA-A*68; parameters: species or system human
HLA-A*26 = assay: HLA-restriction: binding to HLA-A*26; parameters: species or system human
[1] = test system: HLA-A*02 positive tumor cells endogenously expressing Cyclin D1; conditions: allo-restricted T cells of HLA-A2-negative donors; cited from earlier work
cancer patients = assay: Prevaccination T cell responses in cancer patients; format: in vivo, human; conditions: certain cancer patients
Source text: A further aspect of the invention then relates to the use of the peptide or combination according to the invention as a diagnostic tool in the diagnosis of cancer. Basically, the presence of the peptides or a combination thereof in the patient indicates cancer. […] Again, for the diagnosis, the peptides can be labeled. Furthermore, antibodies against the peptides (or combinations) can also be used. The diagnosis can be performed in vivo or in vitro.

HLA A*0201 = HLA A*0201 (Homo sapiens, UniProt P04439, D140Y/D185E/D98H/E176V/E277Q/G131W/G231S/I119V/I121R/I166T/I218V/L300P/L318F/N151K/N90K/P208A/P217A/Q86G/Q94H/R138H/R169H/T345S); assay: ELISA-based HLA binding method (Sylvester-Hvid et al., 2002)
CTL = conditions: HLA-A2+ healthy donors, colon cancer and mantle cell lymphoma patients; CD40-activated B cells as APCs; cited from earlier work
HLA class-II = assay: HLA-restriction: binding to HLA class-II; parameters: species or system human

Compound: O=P1(N(CCCl)CCCl)NCCCO1 (stereo not drawn) [cyclophosphamide, reference compound]
- outcome of the treatment using the vaccine after prior low-dose cyclophosphamide (patients; single infusion 300 mg/m^2 before IMA901): significantly improved
- number of regulatory T cells (regulatory T cells): reduced

Compound: ALLESSLRQA (listed as Homo sapiens) [CCN-007, cyclin D1-derived peptide, aa 253-262]
- binding to HLA-A*02 (HLA-A*02): moderate binder

Compound: ETIPLTAEKL [CCN-006]
- binding to HLA-A*68 (HLA-A*68): seems to be a HLA-A*68 binder

Compound: EVFPLAMNY (listed as Homo sapiens) [CCN-004, cyclin D1-derived peptide, aa 76-84]
- binding to HLA-A*26 (HLA-A*26): high binding
- binding to HLA-A*02 (HLA-A*02): practically no binding

Compound: LLGATCMFV (listed as Homo sapiens) [CCN-001, cyclin D1-derived peptide, aa 101-109]
- lysis of Cyclin D1 expressing HLA-A*02 positive tumor cells by T cell clones recognizing the peptide [1]: could lyze
- prevaccination responses (cancer patients): found
- survival of patients responding against CCN-001 versus non-CCN-001-responding patients (patients; all vaccinated patients): significant longer survival
- favorable effect of T cell response against CCN-001 on survival (patients; patient group pretreated with cyclophosphamide): even more evident
- binding to HLA A*0201 (HLA A*0201): Good binding
- generation of CTL specific for the epitope (CTL): could be generated

Compound: NPPSMVAAGSVVAAV (listed as Homo sapiens) [CCN-003, cyclin D1-derived peptide, aa 198-212]
- HLA restriction (HLA class-II): DRB1*0401 restricted
- binding to HLA class-II (HLA class-II): binds

Compound: YLSGANLNL (listed as Homo sapiens) [CEA-004]
- prevaccination responses (cancer patients): found
